The results in this text go back to EP0139358B1, “N6-substituted diarylalkyl adenosines, processes for their production and pharmaceutical compositions comprising the same” (priority 1983, dated 1985).

The test system of data set [1] is Swiss-Webster male mice. Kind of data set: Mouse Activity and Screen Test (MAST): screen test (ST). The format is in vivo. Conditions: lowest dose at which an A rating (60-100%) is achieved, screen test; intraperitoneally. How it is done:
Treatments are administered intraperitoneally one hour prior to testing. […] Compounds are dissolved or suspended in 0.2% Methocel. Control animals are injected with Methocel.
The compounds are identified in the Examples.

Data set [2] concerns male Swiss-Webster mice. Kind of data set: Analgesic evaluation: antiwrithing (AW) test, acetic acid. The format is in vivo. Conditions: Mus musculus, sc, read-out: AW ED50. As for the experimental part: The antiwrithing (AW) test provides preliminary assessment of compounds with potential analgesic activity. The test is performed in male Swiss-Webster mice. Compounds are administered subcutaneously in aqueous 0.2% methylcellulose or other appropriate vehicles in volumes of 10 ml/kg. Dosages represent activity moiety.
Acetic acid (0.6%, 10 ml/kg) is injected intraperitroneally 20 minutes after administration of the adenosine agonist. Writhing movements are counted for five minutes starting seven minutes after the acetic acid injection. Writhing is defined as abdominal constriction and stretching of the body and hind legs with concave arching of the back. […] EDso values are calculated by nonlinear regression analysis.
(An intraperitoneal irritant provokes the stretching counted in writhing tests.)

Data set [3] concerns rat heart. Nature of the data set: Coronary blood flow (PCS2A): isolated perfused heart. Conditions: Rattus norvegicus.

Where two headings read alike, the source gives them in different places.

`OC[C@H]1O[C@@H](n2cnc3c(NCC(c4ccccc4)c4ccccc4)ncnc32)[C@H](O)[C@@H]1O` [Example 1, N^6-(2,2-Diphenylethyl)adenosine]: the “MAST ST LAD” value in data set [1] is >100 mg/kg. Also, the ED50 (as a rule, the dose at which the effect has come halfway, by size or by number of responders) in data set [2] was 6.9 mg/kg. In data set [3] (read-out: CF), the activation at 0.001 µM was determined as 7%, the activation at 0.003 µM was 15%, the activation at 0.01 µM came out at 32% and the activation at 0.1 µM came to 43%. Further, the activation at 1 µM in data set [3] (read-out: CF) worked out at 50%. Besides, the EC50 in data set [3] (read-out: PCS2A CF ED50) was determined as 1 µM. For the same compound, in data set [3] (read-out: PCS2A HR ED50), the EC50 was 2 µM.
